From patent US20220023271A1, “COMPOSITION FOR PREVENTING OR TREATING CELLULAR SENESCENCE-RELATED DISEASES COMPRISING ZOTAROLIMUS AS ACTIVE INGREDIENT” (RESEARCH COOPERATION FOUNDATION OF YEUNGNAM UNIVERSITY, priority 2018, published 2022)

Legend:
[1] = test system: human dermal fibroblasts (HDF); assay: CCK-8 cell growth analysis in human fibroblasts; format: cell-based
Experimental: Each cell was treated in a serum-free culture solution containing 0.5 μM doxorubicin for 4 hours. After washing the cells with a serum-free culture solution, the cells were cultured for 4 days in a culture solution containing 10% FBS, and then cellular aging was confirmed by staining with senescence-associated beta galactosidase (SAβG). After dispensing 2×10^5 cells in a 100 mm culture dish, they were cultured in a 37° C., 5% CO2 incubator. When the cells grew to 80-90% in the culture dish, the cells were removed by treatment with trypsin-EDTA, and the number of cells was measured, and the cell population doubling time (PDT) was measured. After each sample was dissolved in DMSO, young cells, replicative senescent cells, and premature senescent cells treated with doxorubicin were treated with 100 nM zotarolimus, 100 nM rapamycin, 100 nM ABT263, respectively. […] Then, the absorbance was measured at 450 nm using a microplate reader. The degree of cell growth was expressed as a relative value for the absorbance of the control group treated with only DMSO as 100%. […]

[2] = test system: human retinal pigmented epithelial cells (ARPE-19); assay: SAβG activity staining in senescent retinal pigmented epithelial cells; format: cell-based; details: premature senescent retinal pigmented epithelial cells by doxorubicin; 100 nM, 4 days; vs DMSO-treated group; p<0.01
Experimental: Each cell was treated in a serum-free culture solution containing 0.5 μM doxorubicin for 4 hours. After washing the cells with a serum-free culture solution, the cells were cultured for 4 days in a culture solution containing 10% FBS, and then cellular aging was confirmed by staining with senescence-associated beta galactosidase (SAβG). After each sample was dissolved in DMSO, young cells, replicative senescent cells, and premature senescent cells treated with doxorubicin were treated with 100 nM zotarolimus, 100 nM rapamycin, 100 nM ABT263, respectively. After incubation for 4 days in a 37° C., 5% CO2 incubator, the degree of cell growth was confirmed by CCK-8 analysis, the degree of cellular aging was confirmed by senescence-related beta-galactosidase (SAβG) staining, The cells were washed with 1× phosphate buffer solution, and fixed with a phosphate buffer solution containing 3.7% (v/v) paraformaldehyde. After adding 1 mg/ml 5-bromo-4-chloro-3-indolyl-6-D-galactoside, 40 mM citric acid-sodium phosphate (pH 6.0), 5 mM potassium ferricyanide, 5 mM potassium ferrocyanide, 150 mM NaCl, and 2 mM MgCl2 solution, it was reacted at 37° C. for 18 hours. It was stained with eosin as a control stain. Cells stained blue in the cytoplasm were identified using an optical microscope. […]

[3] = test system: human retinal pigmented epithelial cells (ARPE-19); assay: CCK-8 cell growth analysis in retinal pigmented epithelial cells; format: cell-based; details: young vs senescent retinal pigmented epithelial cells; concentration-dependent
Experimental: Each cell was treated in a serum-free culture solution containing 0.5 μM doxorubicin for 4 hours. After washing the cells with a serum-free culture solution, the cells were cultured for 4 days in a culture solution containing 10% FBS, and then cellular aging was confirmed by staining with senescence-associated beta galactosidase (SAβG). After each sample was dissolved in DMSO, young cells, replicative senescent cells, and premature senescent cells treated with doxorubicin were treated with 100 nM zotarolimus, 100 nM rapamycin, 100 nM ABT263, respectively. After incubation for 4 days in a 37° C., 5% CO2 incubator, the degree of cell growth was confirmed by CCK-8 analysis, the degree of cellular aging was confirmed by senescence-related beta-galactosidase (SAβG) staining, Young cells (1×10^3 cells/well) or senescent cells (2×10^3 cells/well) were dispensed into a 96-well plate, and cultured overnight in a 37° C., 5% CO2 incubator. Zotarolimus, ABT263 and rapamycin were treated at each concentration, and then incubated for 4 days in a 37° C., 5% CO2 incubator. […] Then, the absorbance was measured at 450 nm using a microplate reader. The degree of cell growth was expressed as a relative value for the absorbance of the control group treated with only DMSO as 100%. […]

[4] = test system: pulmonary fibrosis induced by bleomycin; assay: Lung fibrosis induced by bleomycin in mice; format: in vivo, C57BL/6J mice
Experimental: Animal experiments were conducted with the approval of the Animal Experimental Ethics Committee, Yeungnam University College of Medicine (YUMC-AEC2018-025). After anesthetizing by injecting 2.5% avertin (Avertin; 0.025 ml/g) into the abdominal cavity of 10-week-old C57BL/6J male mice, 2 mU/g of bleomycin was instilled into the bronchi and injected into the lungs.
From 5 days after bleomycin administration, 2.5 μl of 10 mM zotarolimus was diluted in 100 μl phosphate buffer solution at intervals of 3 days and injected intraperitoneally 6 times (Zota group).
Three mice were used for each group, and lungs were excised by sacrifice 22 days after bleomycin injection and fixed in 10% formalin solution or stored frozen in liquid nitrogen.
The tissue fixed in 10% formalin solution was embedded with paraffin and cut into 4 μm to prepare a tissue sample. After removing paraffin from the tissue sample, hematoxylin-eosin staining, trichrome staining, and PAS staining were performed.
The degree of fibrosis was measured by analyzing the degree of collagen staining using the i-Solution™ software program (IMT Inc., Canada) after trichrome staining and the degree of cell senescence in tissue samples was investigated by staining lipofuscin with Sudan black B (Viegas M S, et al., European journal of histochemistry: EJH. 2007). The degree of peritoneal fibrosis was confirmed by measuring the submesothelial thickness of the peritoneal mesothelial cell layer using the NIH Image J program.

[5] = i.p. 6 times at 3-day intervals from day 5, vs PBS group

CO[C@H]1C[C@@H]2CC[C@@H](C)[C@@](O)(O2)C(=O)C(=O)N2CCCC[C@H]2C(=O)O[C@H]([C@H](C)C[C@@H]2CC[C@H](n3cnnn3)[C@H](OC)C2)CC(=O)[C@H](C)/C=C(\C)[C@@H](O)[C@@H](OC)C(=O)[C@H](C)C[C@H](C)/C=C/C=C/C=C/1C [zotarolimus]
cell growth (CCK-8) ([1]; premature senescent fibroblasts by doxorubicin, 100 nM, 4 days, vs DMSO): significantly decreased
cell growth with increasing concentration of zotarolimus ([1]; young vs replicative senescent fibroblasts, concentration-dependent): more markedly decreased in senescent cells compared to young cells
SAβG activity staining [2]: significantly decreased
cell growth with increasing concentrations of zotarolimus [3]: significantly decreased in senescent cells compared to young cells
weight gain ([4]; before induction vs 20th day, vs NT group): significantly decreased
degree of lung fibrosis (trichrome staining) [4, 5]: statistically significantly reduced
degree of lung tissue damage (hematoxylin-eosin staining) [4, 5]: statistically significantly reduced
weight ([4]; vs PBS group): further increased compared to that of the PBS group
